Experimental data as given in ChEMBL document CHEMBL4334475, “Aphidicolin Chemistry of the Deep-Sea-Derived Fungus Botryotinia fuckeliana MCCC 3A00494” (J Nat Prod, 2019).
The source made the active and inactive calls. No cut-off for these calls is given here.

What was measured:
HL-60 [1] = experiment: Antiproliferative activity against human HL60 cells assessed as reduction in cell viability after 48 hrs by MTT assay; type: functional, cell-based; details: HL-60, 48 h
HL-60 [2] = experiment: Potency index, ratio of aphidicolin IC50 to compound IC50 for antiproliferative activity against human HL60 cells; type: functional
T-24 [3] = experiment: Antiproliferative activity against human T24 cells assessed as reduction in cell viability after 48 hrs by MTT assay; type: functional, cell-based; details: T-24, 48 h
HL-60 [4] = experiment: Induction of apoptosis in human HL60 cells assessed as increase in PARP cleavage at 11 to 22 uM by Western blot analysis; type: functional, cell-based
T-24 [5] = experiment: Induction of apoptosis in human T24 cells assessed as increase in PARP cleavage at 11 to 22 uM by Western blot analysis; type: functional, cell-based
HL-60 [6] = experiment: Induction of DNA damage in human HL60 cells assessed as increase in gammaH2AX expression at 11 to 22 uM by Western blot analysis; type: functional, cell-based
T-24 [7] = experiment: Induction of DNA damage in human T24 cells assessed as increase in gammaH2AX expression at 11 to 22 uM by Western blot analysis; type: functional, cell-based

SMILES	IC50 (HL-60 [1]) [µM]	Ratio IC50 (HL-60 [2])	IC50 (T-24 [3]) [nM]	Activity (HL-60 [4])	Activity (T-24 [5])	Activity (HL-60 [6])	Activity (T-24 [7])
C[C@@]1(CO)[C@H](O)CC[C@@]2(C)[C@H]1CC[C@H]1C[C@@H]3C[C@@]12CC[C@]3(O)CO [APHIDICOLIN]	24.4	–	–	–	–	–	–
C[C@@]1(CO)[C@H](O)CC[C@@]2(C)[C@H]1C(=O)C[C@H]1C[C@@H]3C[C@@]12CC[C@]3(O)CO	6.1	4	2500	Active	Active	Active	Active
